The target of this assay is T1, wild type AR (Homo sapiens, UniProt P10275).
T1 construct: expressed in transfected cells
T1 sequence (P10275 1-920): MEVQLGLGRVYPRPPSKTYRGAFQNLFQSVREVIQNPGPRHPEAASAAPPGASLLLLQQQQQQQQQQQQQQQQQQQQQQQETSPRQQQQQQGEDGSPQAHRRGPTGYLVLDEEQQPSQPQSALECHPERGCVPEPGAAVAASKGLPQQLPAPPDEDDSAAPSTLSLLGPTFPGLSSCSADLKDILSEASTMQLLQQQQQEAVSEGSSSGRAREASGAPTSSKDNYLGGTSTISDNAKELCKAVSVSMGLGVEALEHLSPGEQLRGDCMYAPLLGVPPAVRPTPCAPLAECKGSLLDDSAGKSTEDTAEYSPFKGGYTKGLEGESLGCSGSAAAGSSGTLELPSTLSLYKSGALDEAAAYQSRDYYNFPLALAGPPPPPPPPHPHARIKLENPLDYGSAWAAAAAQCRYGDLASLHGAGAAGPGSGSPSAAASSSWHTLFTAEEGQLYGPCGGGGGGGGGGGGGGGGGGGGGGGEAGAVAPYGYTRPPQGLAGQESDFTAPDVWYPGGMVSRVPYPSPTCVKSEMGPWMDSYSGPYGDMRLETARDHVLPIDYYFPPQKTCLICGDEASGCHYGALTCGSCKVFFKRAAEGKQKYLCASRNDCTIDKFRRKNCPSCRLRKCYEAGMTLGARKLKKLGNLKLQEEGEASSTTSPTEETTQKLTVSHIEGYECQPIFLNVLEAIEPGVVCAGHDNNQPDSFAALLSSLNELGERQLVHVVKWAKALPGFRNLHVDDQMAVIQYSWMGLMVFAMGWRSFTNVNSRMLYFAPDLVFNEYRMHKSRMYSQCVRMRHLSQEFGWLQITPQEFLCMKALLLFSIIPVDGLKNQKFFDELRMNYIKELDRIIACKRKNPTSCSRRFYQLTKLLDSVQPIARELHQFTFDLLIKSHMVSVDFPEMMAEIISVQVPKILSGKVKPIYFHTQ
It counts as cell-based. The protocol: To determine the global effect of the various AIS mutations on AR signaling, each was analyzed using HCA. This technology allows simultaneous quantification of AR protein expression, nuclear translocation, subnuclear patterning, and transcriptional activity. The analysis was done in HeLa cell lines stably transfected with wild type or mutant ARs fused with green fluorescent protein, or using AR immunofluorescence in primary cultures of genital skin fibroblasts generated from foreskin biopsies of historical AIS patients, or of normal neonates undergoing circumcision at birth. To prevent the effects of receptor over-expression, stable HeLa cells were carefully selected to express AR levels similar to LNCaP as previously described. Prior to ligand treatment, HeLa cells were transfected with the pARR2PB-dsRED2skl reporter plasmid, consisting of the AR responsive promoter ARR2PB [31] driving expression of the red fluorescent protein reporter dsRED2skl engineered to target peroxisomes.
For studies utilizing HeLa GFP-AR cell lines, twenty-four hours before transfection with pARR2PB-dsRED2skl, cells were plated onto 100 mm plastic dishes in medium supplemented with 5% charcoal-stripped and dialyzed-FBS. Transient introduction of the pARR-2PB-dsRED2skl reporter construct was performed using 6.0 µg reporter plasmid and 6.0 µg carrier DNA (BlueScript, Stratagene, San Diego, CA) using Transfectin (Biorad) following standard protocols. After 8-hour incubation, DNA/lipid complexes were removed. Cells were then trypsinized and replated at 10,000 cells per well in Nunc poly-D-lysine treated 96-well optical glass bottom plates and incubated an additional 12 hours to allow for cell adhesion. […] Compound dilutions and final addition to multi-well plates were performed using a Beckman Biomek NX robotic platform to ensure repeatability from experiment to experiment. After incubation was complete, using the Biomek NX robot, plates were washed with PBS and fixed for 20 min at RT in 4% formaldehyde prepared in CSK buffer (80 mM potassium PIPES, pH 6.8, 5 mM EGTA, 2 mM MgCl2). After fixation, cells were briefly permeabilized (5 min) with 0.5% Triton-X and prepared for imaging by washing in PBS, aspirating the washed solution, and adding a 1 ng/ml DAPI solution to stain DNA and a generic protein stain (CellMask, Invitrogen) to facilitate cell and nuclear image segmentation. Cells were imaged in PBS.
Cells were imaged using the Cell Lab IC-100 Image Cytometer (IC-100; Beckman Coulter) platform that consists of 1) Nikon Eclipse TE2000-U Inverted Microscope (Nikon; Melville, NY); 2) Chroma 82000 triple band filter set (Chroma; Brattleboro, VT); 3) an imaging camera: Hamamatsu ORCA-ER Digital CCD camera (Hamamatsu; Bridgewater, NJ); and 4) a focusing camera: Photonics COHU Progressive scan camera (Photonics; Oxford, MA). […] In general, 49 to 64 images were captured per well for image analysis.
Initially, the background signal was removed from all images using plate- and channel-specific correction images, generated by the sum projection of >600 randomly selected images for each channel from the image set. This allows for a pixel-by-pixel background subtraction that compensates any consistent uneven background artifacts in the image set. Furthermore, users are able to customize the degree of background subtraction by applying a multiplier to each correction image, useful for identification of objects such as nuclei or cell borders. […]

Structures are written as SMILES.

Consider `C[C@@H]1CC2=CC(=O)CC[C@@H]2[C@H]2CC[C@@]3(C)[C@@H](CC[C@]3(C)O)[C@@H]21` [Mb, Mibolerone], for which the “Percent Signal in Nucleus, Max” value (HeLa Wild Type, % signal present in the nucleus, Mean±S.E.M.) is on record as 80.5±1.9%. The “Hyperspeckling, Max” value (HeLa Wild Type, absolute numerical measurement) amounted to 1101±61. Further, the “Transcriptional Activity, Max” value (HeLa Wild Type, pARR2PB-dsRED2skl reporter, absolute numerical measurement) was 113±1.4. Moreover, the “increase in the percent of the GFP signal in the nucleus” value (HeLa wild type GFP-AR, vs untreated) was “approximately 30%”. Under “HeLa-AR cells, 1440 min”, the “factor between EC50 for nuclear translocation and EC50 for hyperspeckling and transcriptional activity” value is “approximately 30 fold”.

These data come from publication PMC2785468, “Androgen Receptor Mutations Associated with Androgen Insensitivity Syndrome: A High Content Analysis Approach Leading to Personalized Medicine” (PLoS ONE, 2009).
